Source: ChEMBL document CHEMBL5154749 (Eur J Med Chem, 2022)

system: HT-29; experiment: Cytotoxicity against ATM proficient human HT-29 cells assessed as reduction in cell viability incubated for 72 hrs by MTT assay; assay type: functional, cell-based; conditions: HT-29, 72 h

Row | Structure (SMILES) | IC50
1 | CC(C)n1c(=O)n(C)c2cnc3cc(F)c(-c4ccc(OCCCN5CCCCC5)nc4)cc3c21 [AZD-1390] | > 10000 nM

target: Serine/threonine-protein kinase ATR (Homo sapiens, UniProt Q13535); experiment: Inhibition of human recombinant full length ATR using GST-cMyc-p53 as substrate incubated for 40 mins in presence of ATP by HTRF assay; conditions: not given
Sequence (Q13535 whole entry): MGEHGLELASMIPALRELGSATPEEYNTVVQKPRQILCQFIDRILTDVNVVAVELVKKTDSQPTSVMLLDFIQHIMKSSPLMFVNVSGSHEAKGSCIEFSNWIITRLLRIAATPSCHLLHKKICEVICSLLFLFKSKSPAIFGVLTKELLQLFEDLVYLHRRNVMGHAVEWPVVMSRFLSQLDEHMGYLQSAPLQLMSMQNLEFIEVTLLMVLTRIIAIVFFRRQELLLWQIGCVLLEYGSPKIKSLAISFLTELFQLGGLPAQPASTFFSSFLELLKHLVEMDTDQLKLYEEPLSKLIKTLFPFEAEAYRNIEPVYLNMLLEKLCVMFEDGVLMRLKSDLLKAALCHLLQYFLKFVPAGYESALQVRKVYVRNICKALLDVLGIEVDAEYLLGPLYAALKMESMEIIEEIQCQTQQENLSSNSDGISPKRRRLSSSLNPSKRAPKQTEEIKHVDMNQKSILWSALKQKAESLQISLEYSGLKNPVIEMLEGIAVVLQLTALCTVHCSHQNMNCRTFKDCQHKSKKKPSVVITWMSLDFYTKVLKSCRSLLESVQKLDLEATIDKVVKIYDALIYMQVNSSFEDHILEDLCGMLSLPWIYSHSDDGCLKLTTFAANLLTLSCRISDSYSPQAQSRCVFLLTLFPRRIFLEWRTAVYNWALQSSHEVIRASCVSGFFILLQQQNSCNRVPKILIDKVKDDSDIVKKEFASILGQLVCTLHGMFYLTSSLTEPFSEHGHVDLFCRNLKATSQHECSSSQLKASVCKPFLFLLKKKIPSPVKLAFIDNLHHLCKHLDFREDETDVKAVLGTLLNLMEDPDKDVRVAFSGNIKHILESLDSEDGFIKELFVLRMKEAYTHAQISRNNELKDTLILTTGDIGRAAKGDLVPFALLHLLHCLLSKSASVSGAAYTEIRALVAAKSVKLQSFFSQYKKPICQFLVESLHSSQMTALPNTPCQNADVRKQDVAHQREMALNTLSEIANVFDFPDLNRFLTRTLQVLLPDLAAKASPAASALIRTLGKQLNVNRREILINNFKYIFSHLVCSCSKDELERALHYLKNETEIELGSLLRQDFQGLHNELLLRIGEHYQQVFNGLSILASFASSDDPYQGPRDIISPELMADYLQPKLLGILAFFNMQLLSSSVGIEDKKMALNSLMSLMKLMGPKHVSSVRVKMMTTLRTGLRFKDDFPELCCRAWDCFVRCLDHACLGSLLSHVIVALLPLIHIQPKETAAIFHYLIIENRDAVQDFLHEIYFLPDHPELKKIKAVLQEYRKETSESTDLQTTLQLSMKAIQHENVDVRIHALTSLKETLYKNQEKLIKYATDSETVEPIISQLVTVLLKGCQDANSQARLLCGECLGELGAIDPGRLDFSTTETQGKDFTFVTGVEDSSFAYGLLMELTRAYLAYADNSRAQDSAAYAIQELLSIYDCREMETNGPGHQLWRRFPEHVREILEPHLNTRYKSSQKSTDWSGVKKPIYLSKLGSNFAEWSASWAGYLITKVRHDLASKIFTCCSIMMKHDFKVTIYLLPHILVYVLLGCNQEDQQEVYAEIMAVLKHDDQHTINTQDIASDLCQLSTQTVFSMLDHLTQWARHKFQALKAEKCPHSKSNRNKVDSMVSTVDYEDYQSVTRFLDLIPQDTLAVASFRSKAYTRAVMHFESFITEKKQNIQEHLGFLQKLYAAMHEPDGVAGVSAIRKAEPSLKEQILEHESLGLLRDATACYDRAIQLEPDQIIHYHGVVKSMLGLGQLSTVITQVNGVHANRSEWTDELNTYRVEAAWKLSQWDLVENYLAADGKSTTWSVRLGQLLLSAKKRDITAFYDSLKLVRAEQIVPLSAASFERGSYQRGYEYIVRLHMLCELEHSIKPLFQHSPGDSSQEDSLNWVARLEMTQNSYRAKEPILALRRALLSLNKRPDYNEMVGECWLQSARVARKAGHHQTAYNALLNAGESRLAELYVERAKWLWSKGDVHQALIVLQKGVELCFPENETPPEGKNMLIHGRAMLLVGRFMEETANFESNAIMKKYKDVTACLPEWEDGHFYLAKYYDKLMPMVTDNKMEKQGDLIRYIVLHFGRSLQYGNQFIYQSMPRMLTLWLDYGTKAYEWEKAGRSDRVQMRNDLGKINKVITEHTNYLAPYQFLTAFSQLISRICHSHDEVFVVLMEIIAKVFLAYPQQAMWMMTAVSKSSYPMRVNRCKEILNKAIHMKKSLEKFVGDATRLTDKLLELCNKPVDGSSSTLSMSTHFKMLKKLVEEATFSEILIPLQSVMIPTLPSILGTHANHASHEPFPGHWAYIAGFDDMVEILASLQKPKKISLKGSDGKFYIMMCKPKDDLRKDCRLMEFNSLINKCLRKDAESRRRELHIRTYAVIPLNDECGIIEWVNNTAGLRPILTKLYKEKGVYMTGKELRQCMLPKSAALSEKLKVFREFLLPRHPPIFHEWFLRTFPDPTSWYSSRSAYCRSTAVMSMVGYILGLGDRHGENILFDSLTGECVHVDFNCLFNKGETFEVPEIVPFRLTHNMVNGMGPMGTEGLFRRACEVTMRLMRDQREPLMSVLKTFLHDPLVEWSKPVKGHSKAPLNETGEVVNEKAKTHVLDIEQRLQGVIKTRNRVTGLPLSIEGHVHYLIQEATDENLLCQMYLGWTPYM

Row | Structure (SMILES) | IC50
2 | C[C@@H]1COCCN1c1nc(-c2cccc3[nH]ccc23)nc2ccc(-c3ccc(=O)n(C)c3)cc12 | 194 nM
3 | C[C@@H]1COCCN1c1nc(-c2cc(F)cc3[nH]ccc23)nc2ccc(-c3ccnn3C)cc12 | 96 nM
4 | Cn1nccc1-c1ccc2nc(-c3cccc4[nH]ccc34)nc(N3CCOCC3)c2c1 | 89 nM
5 | C[C@@H]1COCCN1c1nc(-c2cccc3[nH]ccc23)nc2ccc(-c3cncn3C)cc12 | 33 nM
6 | Cn1nccc1-c1ccc2nc(-c3cccc4[nH]ccc34)nc(N3CCC[C@@H](N)C3)c2c1 | > 10000 nM
7 | C[C@@H]1COCCN1c1nc(-c2cnc3[nH]ccc3c2)nc2ccc(-c3ccnn3C)cc12 | 1770 nM
8 | CC(C)n1nccc1-c1ccc2nc(-c3cccc4[nH]ccc34)nc(N3CCOC[C@H]3C)c2c1 | 83 nM
9 | COC(=O)C1CN(c2nc(-c3cccc4[nH]ccc34)nc3ccc(-c4ccnn4C)cc23)CCO1 (configuration not stated) | > 10000 nM
10 | C[C@@H]1COCCN1c1nc(-c2c[nH]c3ncccc23)nc2ccc(-c3ccnn3C)cc12 | 3320 nM
11 | C[C@@H]1COCCN1c1nc(-c2cccc3[nH]ccc23)nc2ccc(-c3ccncc3)cc12 | 275 nM
12 | C[C@@H]1COCCN1c1nc(-c2cccc3[nH]ccc23)nc2ccc(-c3ccccc3)cc12 | 2980 nM
13 | Cc1ccc2[nH]ncc2c1-c1nc(N2CCOC[C@H]2C)c2cc(-c3ccnn3C)ccc2n1 | > 10000 nM
14 | Cn1nccc1-c1ccc2nc(-c3cccc4[nH]ccc34)nc(N3CCN(S(C)(=O)=O)CC3)c2c1 | > 10000 nM
15 | C[C@@H]1COCCN1c1nc(-c2c[nH]c3ncc(F)cc23)nc2ccc(-c3ccnn3C)cc12 | 3550 nM
16 | CCOC(c1ccc2nc(-c3cccc4[nH]ccc34)nc(N3CCOC[C@H]3C)c2c1)n1cccn1 (some centres not stated) | 901 nM
17 | C[C@@H]1COCCN1c1nc(-c2cccc3[nH]ccc23)nc2ccc(-c3ccoc3)cc12 | 2370 nM
18 | Cn1nccc1-c1ccc2nc(-c3cccc4[nH]ccc34)nc(N3CCC(N)C3)c2c1 (configuration not stated) | > 10000 nM
19 | C[C@@H]1CNCCN1c1nc(-c2cccc3[nH]ccc23)nc2ccc(-c3ccnn3C)cc12 | > 10000 nM
20 | Cc1ncc(-c2ccc3nc(-c4cccc5[nH]ccc45)nc(N4CCOC[C@H]4C)c3c2)s1 | 2440 nM
21 | Cn1nccc1-c1ccc2nc(-c3cccc4[nH]ccc34)nc(N3C4CCC3COC4)c2c1 | 25 nM
22 | C[C@@H]1COCCN1c1nc(-c2cccc3[nH]ccc23)nc2ccc(-c3ccsc3)cc12 | 2790 nM

Row | Structure (SMILES) | IC50
23 | C[C@@H]1COCCN1c1nc(-c2cnn(C3CCNCC3)c2)nc2ccc(-c3ccnn3C)cc12 | > 10000 nM
24 | Cn1nccc1-c1ccc2nc(-c3cccc4[nH]ccc34)nc(N3CCC[C@H](N)C3)c2c1 | > 10000 nM
25 | C[C@@H]1COCCN1c1nc(-c2cc(C(F)(F)F)cc3[nH]ccc23)nc2ccc(-c3ccnn3C)cc12 | > 10000 nM
26 | C[C@@H]1COCCN1c1nc(-c2c[nH]c3ccccc23)nc2ccc(-c3ccnn3C)cc12 | 215 nM
27 | C[C@@H]1COCCN1c1nc(-c2cc[nH]n2)nc2ccc(-c3ccnn3C)cc12 | > 10000 nM
28 | C[C@@H]1COCCN1c1nc(-c2cccc3[nH]ccc23)nc2ccc(-c3ccc(C#N)nc3)cc12 | > 10000 nM
29 | C[C@@H]1CN(c2nc(-c3cccc4[nH]ccc34)nc3ccc(-c4ccnn4C)cc23)C[C@H](C)O1 | > 10000 nM
30 | Cn1nccc1-c1ccc2nc(-c3cccc4[nH]ccc34)nc(N3CC4CCC(C3)O4)c2c1 | 45 nM
31 | C[C@@H]1COCCN1c1nc(-c2ccnc3[nH]ccc23)nc2ccc(-c3ccnn3C)cc12 | 115 nM
32 | C[C@H]1COCCN1c1nc(-c2cccc3[nH]ccc23)nc2ccc(-c3ccnn3C)cc12 | 700 nM
33 | C[C@@H]1COCCN1c1nc(-c2cccc3[nH]ccc23)nc2ccc(-c3ccc(N4CCOCC4)nc3)cc12 | 578 nM
34 | C[C@@H]1COCCN1c1nc(-c2cccc3[nH]ccc23)nc2ccc(-c3cnn(C)c3)cc12 | 700 nM
35 | C[C@@H]1COCCN1c1nc(-c2cccc3[nH]ccc23)nc2ccc(-c3ccnn3C3CCCCO3)cc12 (some centres not stated) | 435 nM
36 | C[C@@H]1COCCN1c1nc(-c2cn[nH]c2)nc2ccc(-c3ccnn3C)cc12 | > 10000 nM
37 | CCn1nccc1-c1ccc2nc(-c3cccc4[nH]ccc34)nc(N3CCOC[C@H]3C)c2c1 | 18 nM
38 | Cn1nccc1-c1ccc2nc(-c3cccc4[nH]ccc34)nc(N3CC[C@H](N)C3)c2c1 | > 10000 nM
39 | Cc1noc(C)c1-c1ccc2nc(-c3cccc4[nH]ccc34)nc(N3CCOC[C@H]3C)c2c1 | 32 nM
40 | C[C@@H]1COCCN1c1nc(-c2cccc3[nH]ccc23)nc2ccc(-c3cccnc3)cc12 | 183 nM
41 | C[C@@H]1COCCN1c1nc(-c2cccc3[nH]ccc23)nc2ccc(-c3cccn3C)cc12 | 289 nM
42 | Cn1nccc1-c1ccc2nc(-c3cccc4[nH]ccc34)nc(N3CC4CC3CO4)c2c1 (configuration not stated) | 609 nM
